From ChEMBL document CHEMBL5223188, “Discovery of OICR12694: A Novel, Potent, Selective, and Orally Bioavailable BCL6 BTB Inhibitor” (ACS Med Chem Lett, 2023)

Assays:
[1] = in vitro; settings: human, Caco-2
[2] = in vitro; settings: human, liver microsomes
[3] = in vitro; settings: mouse, liver microsomes

Structure (SMILES) | Papp A→B [1] [×10⁻⁶ cm/s] | remaining at 1 h [2] [%] | remaining at 1 h [3] [%]
C[C@H]1COCCN1c1cc(NC(=O)Cn2cc(-c3cc(Cl)c(O)c(C(N)=O)c3)c3c(=O)n(C)cnc32)c(Cl)cn1 | 3.6 | 27 | 63
C[C@H]1CN(C)CCN1c1cc(NC(=O)Cn2cc(-c3cc(F)c(O)c(C(N)=O)c3F)c3c(=O)n(C)cnc32)c(Cl)c(F)n1 | 2.8 | 16 | 43
C[C@H]1CN(C)CCN1c1cc(NC(=O)Cn2cc(-c3cc(F)c(O)c(C(N)=O)c3)c3c(=O)n(C)cnc32)c(Cl)cn1 | 0.5 | 62 | 49
C[C@@H]1COCCN1c1cc(NC(=O)Cn2cc(-c3cc(Cl)c(O)c(C(N)=O)c3)c3c(=O)n(C)cnc32)c(Cl)cn1 | 3 | 55 | 36
Cc1nc2c(c(-c3cc(C(N)=O)c(O)c(F)c3F)cn2CC(=O)Nc2cc(N3CCN(C)C[C@@H]3C)ncc2Cl)c(=O)n1C | 4.4 | 73 | 65
